Assay results: ChEMBL document CHEMBL2150972, “Hepatitis C virus protease inhibitors: patent highlight” (ACS Med Chem Lett, 2012)

Columns and labels:
Hepatitis C virus [1] = experiment: Antiviral activity against HCV assessed as inhibition of viral RNA replication by cell based luciferase reporter gene assay; type: functional, organism-based, Hepacivirus hominis
Hepatitis C virus [2] = experiment: Antiviral activity against HCV by HCVSPF-CY1B assay; type: functional, organism-based, Hepacivirus hominis

EC50 (Hepatitis C virus [1]) [nM]	EC50 (Hepatitis C virus [2]) [nM]	Compound
290		O=C(N[C@H]1CCCCC/C=C/[C@@H]2C[C@@]2(C(=O)NS(=O)(=O)C2CC2)NC(=O)[C@@H]2C[C@@H](Oc3ccncc3)CN2C1=O)OCCF
	34	CCOc1cc(O[C@@H]2C[C@H]3C(=O)N[C@]4(C(=O)NS(=O)(=O)C5CC5)C[C@H]4/C=C/CC[C@@H]4CC4[C@H](NC(=O)c4ccn(C)n4)C(=O)N3C2)ccn1 (some centres not stated)
